Molecules are shown by their SMILES. Counter-ions that a name gives are not always drawn. The source made the active and inactive calls. For most assays here, no stated cut-off is given here; in the data, actives have a measured Kd and inactives only a lower limit. Some results are limits rather than exact numbers.

In assay [1] the target is T1, ATP-dependent RNA helicase DDX42 (Homo sapiens, UniProt Q86XP3).
T1 sequence (Q86XP3 whole entry): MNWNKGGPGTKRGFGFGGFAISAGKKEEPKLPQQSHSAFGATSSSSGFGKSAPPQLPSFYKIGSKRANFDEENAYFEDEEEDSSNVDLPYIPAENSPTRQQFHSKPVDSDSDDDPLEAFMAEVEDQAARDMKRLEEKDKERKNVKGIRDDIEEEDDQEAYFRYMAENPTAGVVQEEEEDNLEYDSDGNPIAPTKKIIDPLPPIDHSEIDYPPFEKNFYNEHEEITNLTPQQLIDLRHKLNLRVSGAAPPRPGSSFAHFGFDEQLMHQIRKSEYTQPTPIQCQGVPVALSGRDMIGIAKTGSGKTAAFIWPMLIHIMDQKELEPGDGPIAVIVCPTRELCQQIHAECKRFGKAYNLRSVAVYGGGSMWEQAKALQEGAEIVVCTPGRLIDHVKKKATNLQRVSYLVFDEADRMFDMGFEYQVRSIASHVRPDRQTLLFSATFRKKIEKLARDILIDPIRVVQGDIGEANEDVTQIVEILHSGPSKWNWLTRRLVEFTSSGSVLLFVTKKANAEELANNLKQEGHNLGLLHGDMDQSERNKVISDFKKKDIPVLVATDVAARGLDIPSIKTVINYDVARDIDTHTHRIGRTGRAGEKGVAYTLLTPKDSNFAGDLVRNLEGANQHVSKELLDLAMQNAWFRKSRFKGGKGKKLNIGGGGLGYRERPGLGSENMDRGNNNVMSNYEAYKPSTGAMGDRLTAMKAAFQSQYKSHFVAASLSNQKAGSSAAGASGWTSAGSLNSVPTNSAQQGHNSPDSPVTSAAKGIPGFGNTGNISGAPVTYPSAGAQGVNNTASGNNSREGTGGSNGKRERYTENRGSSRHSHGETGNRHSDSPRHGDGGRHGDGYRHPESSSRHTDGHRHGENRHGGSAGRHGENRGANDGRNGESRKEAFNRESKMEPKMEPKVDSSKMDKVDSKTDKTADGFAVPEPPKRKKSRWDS

Assay [2] deals with Tyrosine-protein kinase BTK (Homo sapiens, UniProt Q06187).
Chain of Tyrosine-protein kinase BTK (Q06187 whole entry): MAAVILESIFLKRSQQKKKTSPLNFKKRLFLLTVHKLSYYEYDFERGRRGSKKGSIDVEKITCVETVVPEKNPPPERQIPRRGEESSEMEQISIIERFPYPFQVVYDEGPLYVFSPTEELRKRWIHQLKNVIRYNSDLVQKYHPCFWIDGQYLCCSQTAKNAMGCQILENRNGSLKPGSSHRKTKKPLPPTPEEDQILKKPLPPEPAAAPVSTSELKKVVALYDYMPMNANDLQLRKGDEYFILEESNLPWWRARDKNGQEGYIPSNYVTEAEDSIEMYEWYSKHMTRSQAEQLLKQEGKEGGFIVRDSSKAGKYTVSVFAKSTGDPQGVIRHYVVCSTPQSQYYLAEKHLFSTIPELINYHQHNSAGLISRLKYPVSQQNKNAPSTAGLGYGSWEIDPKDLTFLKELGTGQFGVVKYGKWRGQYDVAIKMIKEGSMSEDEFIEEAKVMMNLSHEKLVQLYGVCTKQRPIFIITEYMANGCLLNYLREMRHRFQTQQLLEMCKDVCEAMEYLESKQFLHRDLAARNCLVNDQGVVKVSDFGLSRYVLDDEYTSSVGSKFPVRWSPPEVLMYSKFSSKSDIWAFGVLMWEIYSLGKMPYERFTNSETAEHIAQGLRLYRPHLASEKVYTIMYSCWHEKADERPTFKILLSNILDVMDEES
Assay [3] concerns the target Cyclin-dependent kinase 1 (Homo sapiens, UniProt P06493).
The target of a further assay is T2, Aurora kinase A (Homo sapiens, UniProt O14965).
T2 sequence (O14965 whole entry): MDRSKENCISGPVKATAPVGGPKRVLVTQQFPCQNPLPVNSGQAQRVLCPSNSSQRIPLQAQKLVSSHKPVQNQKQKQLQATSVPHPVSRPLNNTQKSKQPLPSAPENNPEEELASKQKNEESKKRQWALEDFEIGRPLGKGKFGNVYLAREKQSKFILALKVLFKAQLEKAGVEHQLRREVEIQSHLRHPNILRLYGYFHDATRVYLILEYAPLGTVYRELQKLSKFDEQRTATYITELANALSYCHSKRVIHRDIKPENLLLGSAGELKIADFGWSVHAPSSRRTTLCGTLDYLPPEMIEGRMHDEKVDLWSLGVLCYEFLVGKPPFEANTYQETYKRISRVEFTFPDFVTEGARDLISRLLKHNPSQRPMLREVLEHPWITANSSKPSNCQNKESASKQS

Assay [4] has as its target Mitotic checkpoint serine/threonine-protein kinase BUB1 (Homo sapiens, UniProt O43683).
For assay [5], the target named is T3, General transcription and DNA repair factor IIH helicase subunit XPD (Homo sapiens, UniProt P18074).
T3 sequence (P18074 whole entry): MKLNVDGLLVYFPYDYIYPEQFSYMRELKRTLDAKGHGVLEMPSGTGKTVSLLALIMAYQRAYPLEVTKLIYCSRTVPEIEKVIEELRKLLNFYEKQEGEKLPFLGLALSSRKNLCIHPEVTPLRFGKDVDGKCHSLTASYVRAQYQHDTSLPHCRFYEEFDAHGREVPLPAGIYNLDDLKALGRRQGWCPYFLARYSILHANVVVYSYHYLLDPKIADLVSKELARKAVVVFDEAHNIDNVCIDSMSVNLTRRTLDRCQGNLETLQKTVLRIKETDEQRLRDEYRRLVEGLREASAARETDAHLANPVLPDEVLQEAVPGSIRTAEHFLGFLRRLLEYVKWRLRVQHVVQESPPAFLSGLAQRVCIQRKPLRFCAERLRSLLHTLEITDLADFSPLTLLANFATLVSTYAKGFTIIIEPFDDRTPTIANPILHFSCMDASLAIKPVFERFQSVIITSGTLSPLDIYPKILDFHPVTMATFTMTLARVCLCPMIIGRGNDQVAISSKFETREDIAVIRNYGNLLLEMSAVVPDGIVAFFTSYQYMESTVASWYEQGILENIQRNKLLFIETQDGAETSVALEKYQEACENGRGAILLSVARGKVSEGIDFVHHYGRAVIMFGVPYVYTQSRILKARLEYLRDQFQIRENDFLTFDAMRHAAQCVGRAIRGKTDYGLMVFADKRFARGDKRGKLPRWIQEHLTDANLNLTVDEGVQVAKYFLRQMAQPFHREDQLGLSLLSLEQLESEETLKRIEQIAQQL
The settings on record: read-out: Kd apparent; k-562, colo 205, sk-n-be(2) and mv-4-11.

Assay [6] addresses T4, Serine/threonine-protein kinase 3 (Homo sapiens, UniProt Q13188).
T4 sequence (Q13188 whole entry): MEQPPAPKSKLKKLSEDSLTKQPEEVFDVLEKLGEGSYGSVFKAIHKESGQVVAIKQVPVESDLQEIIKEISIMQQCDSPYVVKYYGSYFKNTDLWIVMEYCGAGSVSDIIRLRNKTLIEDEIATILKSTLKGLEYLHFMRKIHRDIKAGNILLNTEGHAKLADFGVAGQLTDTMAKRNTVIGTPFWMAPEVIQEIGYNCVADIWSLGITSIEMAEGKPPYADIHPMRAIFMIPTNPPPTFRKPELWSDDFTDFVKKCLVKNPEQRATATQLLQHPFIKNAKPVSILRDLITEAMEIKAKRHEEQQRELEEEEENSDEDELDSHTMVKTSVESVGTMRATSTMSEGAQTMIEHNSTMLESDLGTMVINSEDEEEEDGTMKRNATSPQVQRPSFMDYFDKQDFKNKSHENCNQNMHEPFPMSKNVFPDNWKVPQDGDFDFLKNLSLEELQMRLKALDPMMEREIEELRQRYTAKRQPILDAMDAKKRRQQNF

For assay [7], the target named is Tyrosine-protein kinase Fer (Homo sapiens, UniProt P16591).
Chain of Tyrosine-protein kinase Fer (P16591 whole entry): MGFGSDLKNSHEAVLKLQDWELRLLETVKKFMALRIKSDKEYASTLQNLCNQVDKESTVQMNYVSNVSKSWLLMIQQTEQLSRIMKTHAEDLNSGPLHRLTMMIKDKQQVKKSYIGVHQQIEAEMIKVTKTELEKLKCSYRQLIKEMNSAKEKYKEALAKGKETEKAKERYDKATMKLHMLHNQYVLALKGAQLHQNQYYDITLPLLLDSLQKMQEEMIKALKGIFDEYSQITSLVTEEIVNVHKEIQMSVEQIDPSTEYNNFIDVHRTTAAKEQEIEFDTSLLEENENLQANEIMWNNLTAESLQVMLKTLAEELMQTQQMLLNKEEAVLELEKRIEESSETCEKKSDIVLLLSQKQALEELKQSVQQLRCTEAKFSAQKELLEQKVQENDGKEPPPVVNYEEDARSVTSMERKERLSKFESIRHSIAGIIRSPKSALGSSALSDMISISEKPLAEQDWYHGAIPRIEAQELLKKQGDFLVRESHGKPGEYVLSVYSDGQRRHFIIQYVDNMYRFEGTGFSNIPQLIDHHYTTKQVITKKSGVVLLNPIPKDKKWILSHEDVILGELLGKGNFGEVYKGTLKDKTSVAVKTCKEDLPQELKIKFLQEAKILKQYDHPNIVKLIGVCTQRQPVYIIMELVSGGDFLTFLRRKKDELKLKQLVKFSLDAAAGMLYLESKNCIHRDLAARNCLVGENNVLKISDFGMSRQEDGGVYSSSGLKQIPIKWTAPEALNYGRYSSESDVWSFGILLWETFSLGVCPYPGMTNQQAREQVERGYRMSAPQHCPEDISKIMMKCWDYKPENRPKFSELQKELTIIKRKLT

Chain of Mitotic checkpoint serine/threonine-protein kinase BUB1 (O43683 whole entry): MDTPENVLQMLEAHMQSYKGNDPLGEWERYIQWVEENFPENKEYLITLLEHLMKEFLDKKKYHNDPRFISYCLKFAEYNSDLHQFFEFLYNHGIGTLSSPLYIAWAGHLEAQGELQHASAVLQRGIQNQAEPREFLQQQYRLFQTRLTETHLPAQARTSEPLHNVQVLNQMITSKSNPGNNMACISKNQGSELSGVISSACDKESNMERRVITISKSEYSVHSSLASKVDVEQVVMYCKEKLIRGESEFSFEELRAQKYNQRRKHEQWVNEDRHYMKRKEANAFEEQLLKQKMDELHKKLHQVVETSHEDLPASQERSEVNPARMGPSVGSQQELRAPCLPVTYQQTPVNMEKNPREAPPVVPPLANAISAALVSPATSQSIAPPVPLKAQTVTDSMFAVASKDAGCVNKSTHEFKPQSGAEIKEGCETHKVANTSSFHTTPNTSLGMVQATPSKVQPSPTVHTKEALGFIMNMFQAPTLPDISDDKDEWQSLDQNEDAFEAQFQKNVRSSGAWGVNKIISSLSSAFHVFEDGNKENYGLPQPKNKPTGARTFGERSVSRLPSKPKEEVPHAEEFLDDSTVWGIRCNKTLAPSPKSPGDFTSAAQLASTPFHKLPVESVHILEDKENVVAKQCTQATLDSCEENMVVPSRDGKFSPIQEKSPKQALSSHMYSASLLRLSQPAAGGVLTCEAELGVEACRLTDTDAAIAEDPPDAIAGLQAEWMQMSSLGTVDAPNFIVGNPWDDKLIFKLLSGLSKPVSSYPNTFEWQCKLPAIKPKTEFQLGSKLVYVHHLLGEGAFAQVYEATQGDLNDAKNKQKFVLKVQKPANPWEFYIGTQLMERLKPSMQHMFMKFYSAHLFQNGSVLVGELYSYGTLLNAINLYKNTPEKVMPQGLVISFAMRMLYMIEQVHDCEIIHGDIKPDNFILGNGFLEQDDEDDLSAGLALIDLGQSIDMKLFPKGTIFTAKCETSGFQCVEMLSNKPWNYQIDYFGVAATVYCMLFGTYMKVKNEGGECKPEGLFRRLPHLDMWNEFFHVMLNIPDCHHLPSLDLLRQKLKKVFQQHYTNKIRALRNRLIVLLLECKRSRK
Chain of Cyclin-dependent kinase 1 (P06493 whole entry): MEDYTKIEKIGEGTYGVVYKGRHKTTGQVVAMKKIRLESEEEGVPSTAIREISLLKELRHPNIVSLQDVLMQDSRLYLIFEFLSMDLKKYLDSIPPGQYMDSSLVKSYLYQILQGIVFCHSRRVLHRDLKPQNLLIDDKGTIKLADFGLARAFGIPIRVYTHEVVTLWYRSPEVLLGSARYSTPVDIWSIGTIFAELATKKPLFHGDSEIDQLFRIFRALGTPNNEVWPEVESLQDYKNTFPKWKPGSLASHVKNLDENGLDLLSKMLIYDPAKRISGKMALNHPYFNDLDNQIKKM

With `Cc1cc(Nc2ncc(Cl)c(Nc3ccccc3S(=O)(=O)C(C)C)n2)c(OC(C)C)cc1C1CCNCC1` [CERITINIB], the Kd (in assay [1]; in assay [2]; in assay [3]; on Aurora kinase A; in assay [4]; in assay [5]) was > 30 µM (inactive) in each case. Also, the Kd in assay [6] is > 30 µM (inactive); in assay [7], 0.214 µM (active).

In the case of `COCC(=O)NC/C=C/c1ccc2ncnc(Nc3ccc(Oc4ccc(C)nc4)c(C)c3)c2c1` [CP-724714], the Kd (in assay [1]; in assay [2]; in assay [3]; on Aurora kinase A; in assay [4]; in assay [5]) was > 30 µM (inactive) in each case. Also, the Kd in assay [6] and in assay [7] was > 30 µM (inactive) in each case.

In the case of `C#Cc1cccc(Nc2ncnc3cc(OC)c(OCCCCCCC(=O)NO)cc23)c1` [CUDC-101], the Kd in assay [1] is > 30 µM (inactive); in assay [2] it was > 30 µM (inactive); in assay [3], > 30 µM (inactive); on Aurora kinase A, > 30 µM (inactive); in assay [4] it was 0.961 µM (active); in assay [5], > 30 µM (inactive). The Kd in assay [6] and in assay [7] was > 30 µM (inactive) in each case.

In the case of `CCS(=O)(=O)N1CCN(c2ccc(Nc3ncc(C(N)=O)c(NC4CC4)n3)cc2)CC1` [Cerdulatinib Hydrochloride], the Kd was > 30 µM (inactive) in assay [1]; > 30 µM (inactive) in assay [2]; > 30 µM (inactive) in assay [3]; > 30 µM (inactive) on Aurora kinase A; 0.437 µM (active) in assay [4]; > 30 µM (inactive) in assay [5]. Further, the values for the Kd in assay [6] and in assay [7] were 0.062 µM (active) and > 30 µM (inactive), respectively.

With `Cc1nc2cc(-n3ncc(C(=O)c4cc5ccccc5[nH]4)c3N)ccc2[nH]1` [FGFR INHIBITOR DEBIO 1347], the Kd (in assay [1]; in assay [2]; in assay [3]; on Aurora kinase A; in assay [4]; in assay [5]) was > 30 µM (inactive) each time. The Kd in assay [6] and in assay [7] was > 30 µM (inactive) throughout.

As to `Cc1cccc(-c2nn3c(c2-c2ccnc4ccc(C(N)=O)cc24)CCC3)n1` [GALUNISERTIB], the Kd (in assay [1]; in assay [2]; in assay [3]; on Aurora kinase A; in assay [4]; in assay [5]) was > 30 µM (inactive) throughout. Also, the Kd in assay [6] and in assay [7] was > 30 µM (inactive) in each case.

For `CNC(=O)c1cccc2cc(Oc3ccnc4cc(OCC5(N)CC5)c(OC)cc34)ccc12` [LUCITANIB], the Kd (in assay [1]; in assay [2]; in assay [3]; on Aurora kinase A; in assay [4]; in assay [5]) was > 30 µM (inactive) in each case. The Kd in assay [6] and in assay [7] was > 30 µM (inactive) each time.

Regarding `NC1(c2ccc(-c3nc4ccn5c(=O)[nH]nc5c4cc3-c3ccccc3)cc2)CCC1` [MK-2206], the Kd (in assay [1]; in assay [2]; in assay [3]; on Aurora kinase A; in assay [4]; in assay [5]) was > 30 µM (inactive) throughout. In addition, the Kd in assay [6] and in assay [7] was > 30 µM (inactive) in each case.

Take `CN(C[C@@H]1COCCO1)S(=O)(=O)Nc1ccc2ccc3ncc(-c4cnn(C)c4)cc3c(=O)c2c1` [MK-2461]: the Kd (in assay [1]; in assay [2]; in assay [3]; at Aurora kinase A; in assay [4]; in assay [5]) was > 30 µM (inactive) each time. Besides, the Kd in assay [6] and in assay [7] was > 30 µM (inactive) in each case.

In the case of `Cn1cc(-c2cnc3ccc4ccc(CS(=O)(=O)NCc5ccccn5)cc4c(=O)c3c2)cn1` [MK-8033], the Kd (in assay [1]; in assay [2]; in assay [3]; on Aurora kinase A; in assay [4]; in assay [5]) was > 30 µM (inactive) in each case. Moreover, the Kd in assay [6] and in assay [7] was > 30 µM (inactive) in each case.

On to `CCOc1cc2ncc(C#N)c(Nc3ccc(F)c(Cl)c3)c2cc1NC(=O)/C=C/CN(C)C` [PELITINIB], for which the Kd was > 30 µM (inactive) in assay [1]; 0.514 µM (active) in assay [2]; > 30 µM (inactive) in assay [3]; > 30 µM (inactive) at Aurora kinase A; > 30 µM (inactive) in assay [4]; > 30 µM (inactive) in assay [5]. In addition, the Kd in assay [6] and in assay [7] was > 30 µM (inactive) throughout.

For `Cc1nc(Nc2n[nH]c3c2CN(C(=O)N[C@H](CN(C)C)c2ccccc2)C3(C)C)c2sccc2n1` [PF-03758309], the Kd is > 30 µM (inactive) in assay [1]; 1.23 µM in assay [2]; > 30 µM (inactive) in assay [3]; 0.981 µM (active) on Aurora kinase A; > 30 µM (inactive) in assay [4]; 0.002 µM (active) in assay [5]. For the same molecule, the Kd in assay [6] was 2.2 µM (active); in assay [7], 0.802 µM (active).

The values are drawn from ChEMBL document CHEMBL3991601, “The target landscape of clinical kinase drugs” (Science, 2017).
